{
  "source": "patent US8765683B2",
  "about": "“T-140 peptide analogs having CXCR4 super-agonist activity for cancer therapy” (Biokine Therapeutics Ltd., priority 2006, dated 2014)",
  "key": {"[1]": {"tested_on": "PC3-CXCR4.5 cells", "assay": "Proliferation of PC3-CXCR4.5 prostate tumor cells", "format": "cell-based", "experimental": "Next, the effect of the CXCR4 modulators on PC3 and PC3-CXCR4.5 prostate tumor cells was tested. […] The proliferation induced by 4F-benzoyl-TN14003 was dose-dependent (FIG. 3B)."}, "[2]": {"tested_on": "K562L cells", "assay": "K562L (luciferase) CML model, CCCD camera", "format": "in vivo, NOD/SCID mice", "experimental": "In order to monitor the progression and localization of leukemic cells in vivo, the human CML tumor cell lines K562 (K562L) was stably transduced with a retrovirus carrying the luciferase gene. This cell line was injected IP into NOD/SCID mice (2.5×10^5, 5×10^5, 10^6, 2×10^6 per mouse; FIGS. 18 A-D, respectively) that were pretreated with a sub-lethal dose of radiation in order to diminish any natural killer cell activity and enhance acceptance of the tumor cells. Twenty-four hr after injection of the cells, the light generated internally by the luciferase expressed in the tumor cells and then transmitted through the animal's tissues was monitored externally using a cooled charge-coupled device camera (CCCD). The substrate luciferin was provided exogenously via IP injection. […] Quantitation was achieved by integrating the signal intensity using the Metaview software.\nTwo therapeutic approaches were studied using this model. […] In addition, the effect of 4F-benzoyl-TN14003 on the growth of cells in vivo was investigated.\nFurther, the effect of 4F-benzoyl-TN14003 on K562L tumor development was studied. 4F-benzoyl-TN14003 was injected i.p into NOD/SCID mice in the amount of 4 mg/Kg per mouse/per injection. The first injection of 4F-benzoyl-TN14003 was given immediately after the injection of K562-luc cells in an opposite route of injection on the peritoneum. Further injections of 4F-benzoyl-TN14003 were given every three days. Mice were monitored under the CCCD camera, 24 hr after each injection at serial time points, every three days.\n4F-benzoyl-TN14003 was injected i.p into NOD/SCID mice in the amount of 2 mg/Kg whereas AMD-3100 was injected 4 mg/Kg per mouse/per injection. The first injection was given 2 days after the injection of K562-luc cells. Further injections were given on days 5, 7 and 11. Mice (n=3) were monitored under the CCCD camera on day 17 after injection of cells."}, "[3]": {"tested_on": "NCI human MM cells", "assay": "Proliferation and apoptosis (annexin) of NCI MM cells", "format": "cell-based", "settings": "4F-benzoyl-TN14003 0.4-40 μM"}, "[4]": {"tested_on": "human primary keratinocytes", "assay": "Proliferation and survival of keratinocytes", "format": "cell-based", "settings": "AMD-3100 20 μM; 4F-benzoyl-TN14003 4-20 μM", "experimental": "The effect of CXCR4 antagonists on the survival of freshly isolated normal CD4^+ T cells, CD34^+ stem cells and keratinocytes was examined. The proliferation and survival of keratinocytes was not inhibited by CXCR4 antagonists AMD-3100 (20 μM) and 4F-benzoyl-TN14003 (4-20 μM) or the natural ligand CXCL12 (FIG. 2C). The proliferation and survival of CD4^+ T cells was not inhibited by CXCR4 antagonists AMD-3100 (20 μM)."}, "[5]": {"tested_on": "K562 cells", "assay": "Proliferation and apoptosis (Annexin V) of CML K562 cells", "format": "cell-based, human", "settings": "K562 (low CXCR4); 4F-benzoyl-TN14003 4-20 μM", "from_the_text": "(§1) The proliferation and survival of the CML K562 cells or K562 cells that over-express CXCR4 (indicated “CXCR4 high” or “K562-CXCR4”) was first studied."}, "[6]": {"tested_on": "SKBR3", "assay": "Proliferation of SKBR3 breast carcinoma cells", "format": "cell-based"}, "[7]": {"tested_on": "U266", "assay": "Proliferation and apoptosis (annexin) of U266 MM cells", "format": "cell-based, human", "settings": "4F-benzoyl-TN14003 0.4-40 μM"}, "[8]": {"tested_on": "NB4 cells", "assay": "Proliferation of NB4 AML cells", "format": "cell-based, human", "settings": "compared with HL-60"}, "[9]": {"tested_on": "BM derived CD138+ MM cells", "assay": "Survival and apoptosis of BM derived cells of MM patients", "format": "cell-based, human"}, "[10]": {"tested_on": "human NB4 leukemic cells", "assay": "NB4 leukemic xenograft model", "format": "in vivo, nude mice", "experimental": "Acute promyelocytic leukemia (APL)-derived NB4 cell is extensively used as an in vitro and in vivo model system for studying human leukemia. To investigate the therapeutic anti-tumor potential of the CXCR4 antagonist 4F-benzoyl-TN14003 against human leukemic cells, 10×10^6 NB4 cells were injected subcutaneously (s.c) into immunodeficient nude mice (n=5). After 14 days, tumors were established at the size of 0.4 cm^2, and mice were divided into 4F-benzoyl-TN14003-treated (8 mg/Kg, open squares) and PBS-treated (control, full diamonds) groups. The 4F-benzoyl-TN14003 drug solution was administered intraperitoneal (i.p) each day for 5 days, followed by 2 days without drug, and then 4 additional daily injections (total of 9 injections, FIG. 16).\nTo further test the effect of 4F-benzoyl-TN14003 against human leukemic cells, 5×10^6 NB4 cells were injected subcutaneously (s.c) into immunodeficient nude mice (n=5). After 14 days, tumors were very small, at the size of 0.02 cm^2, and mice were divided into 4F-benzoyl-TN14003-treated (open squares) and PBS-treated (control, full diamonds) groups. The 4F-benzoyl-TN14003 drug solution was administered subcutaneously (8 mg/Kg) each day for 4 days (total of 4 injections, FIG. 17A). On day 20, all control mice developed tumors (0.49±0.1 cm^2), whereas in the treated mouse group, only 1 mouse developed a small tumor.\nOn day 31, all control mice developed big tumors in size (FIG. 17A) and weight (FIG. 17B), whereas in the treated group, 4/5 mice developed smaller tumors in size and weight."}, "[11]": {"tested_on": "K562-CXCR4", "assay": "Proliferation and apoptosis (Annexin V) of K562 cells over-expressing CXCR4", "format": "cell-based, human", "settings": "K562 high CXCR4; 4F-benzoyl-TN14003 4-20 μM", "from_the_text": "as §1"}, "[12]": {"tested_on": "BM derived CD34+ cells", "assay": "Survival of CD34+ cells in BM samples of MM patients", "format": "cell-based, human", "settings": "8 μM, 24 hr"}, "[13]": {"tested_on": "U-87", "assay": "Proliferation of U-87 glioblastoma cells", "format": "cell-based"}},
  "note": "Bridge positions count the residues as written; N and C are the ends. Square brackets hold non-standard residues; d marks the D form. Peptide text beside a SMILES is read from it. * marks the point of attachment. 2Nal = N[C@@H](Cc1ccc2ccccc2c1)C(=O)O; Benzoyl(4-F) = O=C(c1ccc(F)cc1)*; Cit = NC(=O)NCCC[C@H](N)C(=O)O",
  "data": [
    {"molecule": "N=C(N)NCCC[C@H](NC(=O)[C@@H]1CSSC[C@H](NC(=O)[C@H](Cc2ccc3ccccc3c2)NC(=O)[C@H](CCCNC(=N)N)NC(=O)[C@H](CCCNC(=N)N)NC(=O)c2ccc(F)cc2)C(=O)N[C@@H](Cc2ccc(O)cc2)C(=O)N[C@@H](CCCNC(N)=O)C(=O)N[C@@H](CCCCN)C(=O)N[C@H](CCCCN)C(=O)N2CCC[C@H]2C(=O)N[C@@H](Cc2ccc(O)cc2)C(=O)N[C@@H](CCCNC(=N)N)C(=O)N[C@@H](CCCNC(N)=O)C(=O)N1)C(N)=O", "note": "[4F-benzoyl-TN14003, 4F-benzoyl-Arg-Arg-Nal-Cys-Tyr-Cit-Lys-DLys-Pro-Tyr-Arg-Cit-Cys-Arg-NH2] ({Benzoyl(4-F)}-RR[2Nal]CY[Cit]K[dK]PYR[Cit]CR-NH2; disulfide 4-13)", "values": [
      {"measurement": "proliferation", "setting": "[1]", "result": "induced the proliferation of prostate cancer cells"},
      {"measurement": "inhibition in K562L tumor development", "setting": "[2]; 2 mg/Kg i.p. days 2, 5, 7, 11, day 17, FIG. 21", "result": "> 90", "unit": "%"},
      {"measurement": "inhibition in K562L tumor development over time", "setting": "[2]; 4 mg/Kg i.p. every three days, FIG. 20", "result": 50, "unit": "%"},
      {"measurement": "apoptotic cell death (annexin assay)", "setting": "[3]", "result": "stimulated apoptotic cell death"},
      {"measurement": "growth", "setting": "[3]", "result": "inhibited the growth"},
      {"measurement": "proliferation and survival of keratinocytes", "setting": "[4]", "result": "not inhibited"},
      {"measurement": "apoptotic cell death (Annexin V assay)", "setting": "[5]", "result": "stimulated apoptotic cell death"},
      {"measurement": "growth", "setting": "[5]", "result": "inhibited the growth"},
      {"measurement": "proliferation", "setting": "[6]", "result": "either stimulated or not affected"},
      {"measurement": "apoptotic cell death (annexin assay)", "setting": "[7]", "result": "stimulated apoptotic cell death"},
      {"measurement": "growth", "setting": "[7]", "result": "inhibited the growth"},
      {"measurement": "sensitivity of NB4 cells (inhibitory effect)", "setting": "[8]", "result": "less sensitive"},
      {"measurement": "apoptosis of CD138+ MM cells", "setting": "[9]; 8 μM, 24 hr", "result": "induced apoptosis"},
      {"measurement": "sensitivity of normal BM samples or BM samples with low percentage of MM cells", "setting": "[9]; freshly isolated BM cells", "result": "not sensitive to treatment"},
      {"measurement": "sensitivity of BM derived samples with high percentage of MM", "setting": "[9]; freshly isolated BM cells of MM patients", "result": "sensitive to treatment"},
      {"measurement": "mice that developed smaller tumors in size and weight on day 31", "setting": "[10]; 8 mg/Kg s.c. each day for 4 days", "result": "4/5"},
      {"measurement": "mice that developed a tumor on day 20", "setting": "[10]; 8 mg/Kg s.c. each day for 4 days, n=5, all control mice developed tumors", "result": 1},
      {"measurement": "tumor growth", "setting": "[10]; established tumors 0.4 cm^2, 8 mg/Kg i.p., 9 injections", "result": "tumor growth was arrested"},
      {"measurement": "apoptotic cell death (Annexin V assay)", "setting": "[11]", "result": "stimulated apoptotic cell death"},
      {"measurement": "growth", "setting": "[11]", "result": "inhibited the growth"},
      {"measurement": "percentage of CD34+ cells", "setting": "[12]", "result": "remained unaffected"},
      {"measurement": "proliferation", "setting": "[13]", "result": "either stimulated or not affected"}
    ]}
  ]
}
